Reference: patent publication US9382208B1, “Negative allosteric modulators of metabotropic glutamate receptor 2” (Vanderbilt University, priority 2015, dated 2016)
Read-outs that look alike come from different tables or passages of the source.

Molecular target: T1, rat mGlu2 (Rattus norvegicus, UniProt P31421)
T1 construct: expressed in transfected cells
Assay: mGlu2 Ca2+ flux assay
Type: cell-based
Settings: for remaining activity at 30 µM: amplitude of response in the presence of 30 μM test compound as percentage of maximal response to glutamate, read-out: rat mGlu2 Glu max (%)
Experimental: Gα15 HEK293 cells stably expressing rat mGlu2 were plated in black-walled, clear-bottomed, poly-D-lysine coated 384-well plates in 20 μL of assay medium (DMEM containing 10% dialyzed FBS, 20 mM HEPES, and 1 mM sodium pyruvate) at a density of 12K cells/well. The cells were grown overnight at 37° C. in the presence of 5% CO2. The next day, medium was removed and the cells incubated with 20 μL of 2.3 μM Fluo-4, AM prepared as a 2.3 mM stock in DMSO and mixed in a 1:1 ratio with 10% (w/v) pluronic acid F-127 and diluted in assay buffer (Hank's balanced salt solution, 20 mM HEPES, and 2.5 mM probenecid) for 45 minutes at 37° C. Dye was removed, 20 μL of assay buffer was added, and the plate was incubated for 5 minutes at room temperature.
Ca^2+ flux was measured using the Functional Drug Screening System (FDSS7000, Hamamatsu, Japan). After establishment of a fluorescence baseline for about 3 seconds, the compounds of the present invention were added to the cells, and the response in cells was measured. 2.3 minutes later an EC20 concentration of the mGlu2 receptor agonist glutamate was added to the cells, and the response of the cells was measured for 1.9 minutes; an EC80 concentration of agonist was added and readings taken for an additional 1.7 minutes. All test compounds were dissolved and diluted to a concentration of 10 mM in 100% DMSO. Compounds were then serially diluted 1:3 in DMSO into 10 point concentration response curves, transferred to daughter plates, and further diluted into assay buffer to a 2× stock. Calcium fluorescence measures were recorded as fold over basal fluorescence; raw data was then normalized to the maximal response to glutamate. Antagonism of the agonist response of the mGlu2 receptor in the present invention was observed as a decrease in response to nearly maximal concentrations of glutamate in the presence of compound compared to the response to glutamate in the absence of compound.
The raw data file containing all time points was used as the data source in the analysis template. This was saved by the FDSS as a tab-delimited text file. Data were normalized using a static ratio function (F/F0) for each measurement of the total 360 values per well divided by each well's initial value. Data were then reduced to peak amplitudes (Max−Initial Min) using a time range that starts approximately 3 seconds prior to the glutamate EC80 addition and continues for approximately 90 seconds. This is sufficient time to capture the peak amplitude of the cellular calcium response. Individual amplitudes were expressed as % ECMax by multiplying each amplitude by 100 and then dividing the product by the mean of the amplitudes derived from the glutamate ECMax-treated wells. IC50 values for test compounds were generated by fitting the normalized values versus the log of the test compound concentration (in mol/L) using a 4 parameter logistic equation where none of the parameters were fixed. Each of the three values collected at each concentration of test compound were weighted evenly.
For NAMs, potency (IC50) and maximum response (% Glu Max), i.e. the amplitude of response in the presence of 30 μM test compound as a percentage of the maximal response to glutamate, are reported. […] Compounds with no measurable activity are designated as “>30,000 nM” since the top concentration of compound tested in the assay is 30 μM.

[1] = Gα15 HEK293 cells stably expressing rat mGlu2, glutamate EC80 addition, read-out: rat mGlu2 IC50

T1 sequence (P31421 19-872): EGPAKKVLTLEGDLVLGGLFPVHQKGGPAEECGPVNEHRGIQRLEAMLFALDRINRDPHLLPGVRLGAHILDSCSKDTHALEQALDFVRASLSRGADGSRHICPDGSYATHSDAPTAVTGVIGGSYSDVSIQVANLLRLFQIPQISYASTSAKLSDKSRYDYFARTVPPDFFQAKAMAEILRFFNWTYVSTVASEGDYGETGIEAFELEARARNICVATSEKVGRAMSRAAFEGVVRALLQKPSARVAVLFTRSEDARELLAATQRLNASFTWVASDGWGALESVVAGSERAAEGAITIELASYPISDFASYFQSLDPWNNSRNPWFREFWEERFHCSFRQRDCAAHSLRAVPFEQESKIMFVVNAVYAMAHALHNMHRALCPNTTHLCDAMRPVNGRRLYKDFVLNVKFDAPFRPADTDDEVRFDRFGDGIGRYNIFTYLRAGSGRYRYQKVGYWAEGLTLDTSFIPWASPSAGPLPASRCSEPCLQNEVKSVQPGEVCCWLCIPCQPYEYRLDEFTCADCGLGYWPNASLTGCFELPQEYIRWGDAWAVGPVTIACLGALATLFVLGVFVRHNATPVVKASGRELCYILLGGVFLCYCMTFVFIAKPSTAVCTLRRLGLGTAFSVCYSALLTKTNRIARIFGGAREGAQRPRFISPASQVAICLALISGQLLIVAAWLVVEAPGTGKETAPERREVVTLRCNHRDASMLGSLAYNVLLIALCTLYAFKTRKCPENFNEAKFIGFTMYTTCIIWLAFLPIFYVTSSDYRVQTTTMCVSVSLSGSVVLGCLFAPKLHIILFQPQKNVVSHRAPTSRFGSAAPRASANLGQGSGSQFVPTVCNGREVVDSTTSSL

Row | SMILES | IC50 [1] | remaining activity at 30 µM | IC50
1 | NC(=O)c1cn(-c2ccc(F)cc2)c2ccc(NCCN3CCOCC3)cc2c1=O [Compound 28, 1-(4-fluorophenyl)-6-((2-morpholinoethyl)amino)-4-oxo-1,4-dihydroquinoline-3-carboxamide] | 1150 nM | 0.77% | –
2 | C[C@@H]1CN(Cc2cc(F)c3c(c2)c(=O)c(C(N)=O)cn3-c2ccc(F)cc2)C[C@H](C)O1 [Compound 92, 6-((cis-2,6-dimethylmorpholino)methyl)-8-fluoro-1-(4-fluorophenyl)-4-oxo-1,4-dihydroquinoline-3-carboxamide] | 4410 nM | 2.23% | –
3 | NC(=O)c1cn(-c2ccc(F)cc2)c2ccc(CCc3ccccn3)cc2c1=O [Compound 11, 1-(4-fluorophenyl)-4-oxo-6-(2-(pyridin-2-yl)ethyl)-1,4-dihydroquinoline-3-carboxamide] | 2590 nM | 0.92% | –
4 | CN(c1ccncc1)c1ccc2c(c1)c(=O)c(C(N)=O)cn2-c1ccc(F)cc1 [Compound 18, 1-(4-fluorophenyl)-6-(methyl(pyridin-4-yl)amino)-4-oxo-1,4-dihydroquinoline-3-carboxamide] | 1150 nM | 1.73% | –
5 | CN(Cc1cccnc1)c1ccc2c(c1)c(=O)c(C#N)cn2-c1ccc(F)cc1 [Compound 96, 1-(4-Fluorophenyl)-6-(methyl(pyridin-3-ylmethyl)amino)-4-oxo-1,4-dihydroquinoline-3-carbonitrile] | – | 3.44% | 3160 nM
6 | NC(=O)c1cn(-c2ccc(F)cc2)c2ccc(N3CCCCC3c3cccnc3)cc2c1=O (stereo not drawn) [Compound 38, 1-(4-fluorophenyl)-4-oxo-6-(2-(pyridin-3-yl)piperidin-1-yl)-1,4-dihydroquinoline-3-carboxamide] | 900 nM | 1.68% | –
7 | NC(=O)c1cn(-c2ccc(F)cc2)c2ccc(NCc3cccnc3)cc2c1=O [Compound 17, 1-(4-fluorophenyl)-4-oxo-6-((pyridin-3-ylmethyl)amino)-1,4-dihydroquinoline-3-carboxamide] | 421 nM | 1.05% | –
8 | NC(=O)c1cn(-c2ccc(F)cc2)c2ccc(CN3CCN(C4CC4)CC3)cc2c1=O [Compound 66, 6-((4-cyclopropylpiperazin-1-yl)methyl)-1-(4-fluorophenyl)-4-oxo-1,4-dihydroquinoline-3-carboxamide] | 1290 nM | 1.89% | –
9 | CN(Cc1cccnc1)c1cc2c(=O)c(C(N)=O)cn(-c3ccc(F)cc3)c2cc1F [Compound 52, 7-Fluoro-1-(4-fluorophenyl)-6-(methyl(pyridin-3-ylmethyl)amino)-4-oxo-1,4-dihydroquinoline-3-carboxamide] | 669 nM | 2.26% | –
10 | NC(=O)c1cn(-c2ccc(F)cc2)c2ccc(COc3ccc(C(F)(F)F)nc3)cc2c1=O [Compound 36, 1-(4-fluorophenyl)-4-oxo-6-(((6-(trifluoromethyl)pyridin-3-yl)oxy)methyl)-1,4-dihydroquinoline-3-carboxamide] | 1460 nM | 1.28% | –
11 | NC(=O)c1cn(-c2ccc(F)cc2)c2ccc(CN3CCCCC3)cc2c1=O [Compound 4, 1-(4-fluorophenyl)-4-oxo-6-(piperidin-1-ylmethyl)-1,4-dihydroquinoline-3-carboxamide] | > 10000 nM | 53.8% | –
12 | NC(=O)c1cn(-c2ccc(F)cc2)c2ccc(Oc3cccnc3)cc2c1=O [Compound 56, 1-(4-fluorophenyl)-4-oxo-6-(pyridin-3-yloxy)-1,4-dihydroquinoline-3-carboxamide] | 882 ± 160 nM | 1.84 ± 0.47% | –
13 | Cc1ccc(OCc2ccc3c(c2)c(=O)c(C(N)=O)cn3-c2ccc(F)cc2)cn1 [Compound 41, 1-(4-fluorophenyl)-6-(((6-methylpyridin-3-yl)oxy)methyl)-4-oxo-1,4-dihydroquinoline-3-carboxamide] | 265 ± 73 nM | 1.62 ± 0.23% | –
14 | CN(c1cccnc1)c1ccc2c(c1)c(=O)c(C(N)=O)cn2-c1ccc(F)cc1 [Compound 20, 1-(4-fluorophenyl)-6-(methyl(pyridin-3-yl)amino)-4-oxo-1,4-dihydroquinoline-3-carboxamide] | 155 nM | 1.33% | –

Continued, in another order:

Row | IC50 [1] | remaining activity at 30 µM | SMILES | IC50
15 | 203 ± 42 nM | 1.7 ± 0.12% | NC(=O)c1cn(-c2ccc(F)cc2)c2ccc(COc3ccc(Cl)nc3)cc2c1=O [Compound 37, 6-(((6-chloropyridin-3-yl)oxy)methyl)-1-(4-fluorophenyl)-4-oxo-1,4-dihydroquinoline-3-carboxamide] | –
16 | 419 ± 46 nM | 1.2 ± 0.5% | Cc1cc(-n2cc(C(N)=O)c(=O)c3cc(CCc4cnc(C)nc4)ccc32)sn1 [Compound 22, 1-(3-methylisothiazol-5-yl)-6-(2-(2-methylpyrimidin-5-yl)ethyl)-4-oxo-1,4-dihydroquinoline-3-carboxamide] | –
17 | 1230 nM | 0.97% | NC(=O)c1cn(-c2ccc(F)cc2)c2ccc(OCc3ccncc3)cc2c1=O [Compound 25, 1-(4-fluorophenyl)-4-oxo-6-(pyridin-4-ylmethoxy)-1,4-dihydroquinoline-3-carboxamide] | –
18 | > 10000 nM | 42.1% | Cc1cccc(CCc2ccc3c(c2)c(=O)c(C(N)=O)cn3-c2ccc(F)cc2)c1 [Compound 7, 1-(4-fluorophenyl)-6-(3-methylphenethyl)-4-oxo-1,4-dihydroquinoline-3-carboxamide] | –
19 | 3910 nM | -0.78% | NC(=O)c1cn(-c2ccc(F)cc2)c2ccc(CN3CCOCC3)cc2c1=O [Compound 3, 1-(4-fluorophenyl)-6-(morpholinomethyl)-4-oxo-1,4-dihydroquinoline-3-carboxamide] | –
20 | 139 nM | 1.61% | COc1ccc(-n2cc(C(N)=O)c(=O)c3cc(CCc4cnc(C)nc4)ccc32)cc1 [Compound 15, 1-(4-methoxyphenyl)-6-(2-(2-methylpyrimidin-5-yl)ethyl)-4-oxo-1,4-dihydroquinoline-3-carboxamide] | –
21 | 2590 nM | 0.96% | NC(=O)c1cn(-c2ccc(F)cc2)c2ccc(CN3CCCCCC3)cc2c1=O [Compound 73, 6-(azepan-1-ylmethyl)-1-(4-fluorophenyl)-4-oxo-1,4-dihydroquinoline-3-carboxamide] | –
22 | > 30000 nM | – | CN(Cc1cc(F)c2c(c1)c(=O)c(C(N)=O)cn2-c1ccc(F)cc1)C1CC(F)(F)C1 [Compound 91, 6-(((3,3-difluorocyclobutyl)(methyl)amino)methyl)-8-fluoro-1-(4-fluorophenyl)-4-oxo-1,4-dihydroquinoline-3-carboxamide] | –
23 | 1880 nM | 1.23% | COC1CCN(Cc2ccc3c(c2)c(=O)c(C(N)=O)cn3-c2ccc(F)cc2)CC1 [Compound 74, 1-(4-fluorophenyl)-6-((4-methoxypiperidin-1-yl)methyl)-4-oxo-1,4-dihydroquinoline-3-carboxamide] | –
24 | 142 nM | 2.01% | CC1(C)CN(Cc2ccc3c(c2)c(=O)c(C(N)=O)cn3-c2ccc(F)cc2)CCO1 [Compound 90, 6-((2,2-dimethylmorpholino)methyl)-1-(4-fluorophenyl)-4-oxo-1,4-dihydroquinoline-3-carboxamide] | –
25 | 1150 nM | 1.08% | C[C@@H]1CN(Cc2ccc3c(c2)c(=O)c(C(N)=O)cn3-c2ccc(F)cc2)CCO1 [Compound 89, (R)-1-(4-fluorophenyl)-6-((2-methylmorpholino)methyl)-4-oxo-1,4-dihydroquinoline-3-carboxamide] | –
26 | 617 nM | 2.4% | NC(=O)c1cn(-c2ccc(F)cc2)c2ccc(CN3CCCC4CCCCC43)cc2c1=O (stereo not drawn) [Compound 67, 1-(4-fluorophenyl)-6-((octahydroquinolin-1(2H)-yl)methyl)-4-oxo-1,4-dihydroquinoline-3-carboxamide] | –
